From patent US20240400546A1, “COMPOUNDS AND USES THEREOF” (JANSSEN PHARMACEUTICA NV, priority 2016, published 2024)

What was measured:
Format in all cases: cell-based
[1] = target: T1, SCD1 (Homo sapiens, UniProt O00767); assay: Growth inhibition of humanized yeast expressing SCD1 as sole desaturase; conditions: for half-maximal inhibitory concentration (IC50), SCD1 humanized strain: FIG. 6
T1 construct: host or cells: S. cerevisiae ole1Δ strain, plasmid pRS316 with TDH3 promoter and CYC1 terminator
T1 sequence (O00767 1-359): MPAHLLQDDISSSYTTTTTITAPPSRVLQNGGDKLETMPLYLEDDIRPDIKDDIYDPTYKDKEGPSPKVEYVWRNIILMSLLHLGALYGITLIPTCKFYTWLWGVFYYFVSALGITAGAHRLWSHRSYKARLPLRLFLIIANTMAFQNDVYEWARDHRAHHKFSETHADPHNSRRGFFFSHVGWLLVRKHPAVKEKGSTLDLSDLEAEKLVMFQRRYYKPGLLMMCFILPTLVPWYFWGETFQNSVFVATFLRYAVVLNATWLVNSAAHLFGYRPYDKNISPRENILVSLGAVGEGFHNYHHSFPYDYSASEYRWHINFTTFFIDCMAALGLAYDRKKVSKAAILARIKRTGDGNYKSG
How it was run: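 ole1Δ yeast (W303 pdr1Δ pdr3Δ background) carried plasmid-borne human SCD1, human SCD5 or yeast Ole1 as the sole desaturase and were grown in uracil-lacking galactose medium in 384-well plates. Starting 2× density was OD600 0.02, with incubation at 30 °C. Growth was read as OD600 at 24 h for Ole1 and at 40 h for SCD1 and SCD5.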

[2] = target: T2, SCD5 (Homo sapiens, UniProt Q86SK9); assay: Growth inhibition of humanized yeast expressing SCD5 as sole desaturase; conditions: for half-maximal inhibitory concentration (IC50), SCD5 humanized strain: FIG. 6
T2 construct: host or cells: S. cerevisiae ole1Δ strain, plasmid pRS316 with TDH3 promoter and CYC1 terminator
T2 sequence (Q86SK9 1-330): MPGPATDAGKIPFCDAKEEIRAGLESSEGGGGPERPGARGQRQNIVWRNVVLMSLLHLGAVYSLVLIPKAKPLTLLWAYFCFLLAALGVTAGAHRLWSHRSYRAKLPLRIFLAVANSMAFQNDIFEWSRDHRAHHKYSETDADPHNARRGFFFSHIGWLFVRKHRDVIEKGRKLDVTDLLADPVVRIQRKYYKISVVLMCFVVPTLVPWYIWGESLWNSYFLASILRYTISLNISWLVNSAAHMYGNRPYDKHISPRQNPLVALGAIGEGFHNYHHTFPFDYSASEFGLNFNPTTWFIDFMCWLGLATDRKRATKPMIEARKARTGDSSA
Description: (§1) Strain ole1Δ (yeast ole1 deletion mutant) was constructed by deleting OLE1 with NAT-MX6 in BY4741, amplifying the deletion cassette from the genomic DNA of the resulting strain with primers flanking the ORF by 1000 bp upstream and downstream, transforming the resulting deletion cassette into W303 pdr1Δ pdr3Δ, and plating transformants on YPD media containing G418 (200 μg/mL) and nourseothricin (100 μg/mL) with 0.01% TWEEN®-20 and 0.5 mM oleic and palmitoleic acids.
(§2) The coding sequence of yeast OLE1 was also cloned into this plasmid). These clones were then transformed into the ole1Δ strain and plated on CSM-Ura media (CSM lacking uracil) with 2% glucose (w/v) and independent colonies were isolated and amplified.
(§3) All compound profiling experiments were performed using the same basic protocol. Different genetic backgrounds (e.g., gene deletions) or conditions (e.g., addition of oleic and palmitoleic acid) were replaced as indicated below.
(§4) Yeast were cultured using standard techniques in complete synthetic media (CSM) and yeast nitrogen base supplemented with 2% (w/v) carbon source (glucose, raffinose, or galactose) to regulate the expression of the toxic disease protein. An initial starter culture was inoculated in 3 mL CSM-Glucose media and incubated overnight in a 30° C. shaker incubator (225 rpm). Saturated morning cultures were then diluted 1:20 in fresh CSM-Raffinose media and grown for 6 h to an OD600 (optical density) of ˜0.4-0.8 at 30° C. with shaking.
(§5) Compound administration was performed in two separate steps. First, 15 μL of CSM-Galactose (induces expression of toxic protein) was dispensed into clear 384 well assay plates using a MULTIDROP™ Combi reagent dispenser. […] The cultures described above were then diluted to a 2× concentration (0.03 and 0.08 for alpha-synuclein and ApoE, final OD600 of 0.015 and 0.04) in CSM-Galactose. For wild-type and Ole1/SCD1/SCD5 plasmid-containing strains, the 2× cell density was 0.02. […] For 96-well assays (FIGS. 1A and 1B), compound dilutions in DMSO were generated in 96 well plates and 1 μL was manually pipetted into 96 well clear bottom assay plates.
(§6) For experiments using a plasmid-borne copy of Ole1, SCD1, or SCD5 (FIGS. 3B, 6, and 7), media lacking uracil (SX-Ura, where X is glucose, raffinose, or galactose), was used for all steps of the compound profiling protocol to ensure its maintenance throughout the assay.
(§7) After yeast delivery, assay plates were incubated under humidified conditions at 30° C. for 24 to 40 h. ApoE4 rescue experiments were stopped at 24 h, aSyn experiments at 40 h, Ole1 at 24 h, and SCD1/SCD5 at 40 h. The growth of yeast was monitored by reading the OD600 of each well using a microplate reader (Perkin Elmer EnVision™).

[3] = target: T3, Ole1 (Saccharomyces cerevisiae, UniProt P21147); assay: Growth inhibition of yeast expressing Ole1 as sole desaturase; conditions: for OLE1 % Max Inhibition: yeast expressing Ole1 as sole desaturase; for Sensitivity of yeast expressing OLE1 to known SCD1/SCD5 inhibitors: FIG. 6
T3 construct: expressed in transfected cells; host or cells: S. cerevisiae ole1Δ strain (W303 pdr1Δ pdr3Δ background), plasmid pRS316 with TDH3 promoter and CYC1 terminator
T3 sequence (P21147 1-510): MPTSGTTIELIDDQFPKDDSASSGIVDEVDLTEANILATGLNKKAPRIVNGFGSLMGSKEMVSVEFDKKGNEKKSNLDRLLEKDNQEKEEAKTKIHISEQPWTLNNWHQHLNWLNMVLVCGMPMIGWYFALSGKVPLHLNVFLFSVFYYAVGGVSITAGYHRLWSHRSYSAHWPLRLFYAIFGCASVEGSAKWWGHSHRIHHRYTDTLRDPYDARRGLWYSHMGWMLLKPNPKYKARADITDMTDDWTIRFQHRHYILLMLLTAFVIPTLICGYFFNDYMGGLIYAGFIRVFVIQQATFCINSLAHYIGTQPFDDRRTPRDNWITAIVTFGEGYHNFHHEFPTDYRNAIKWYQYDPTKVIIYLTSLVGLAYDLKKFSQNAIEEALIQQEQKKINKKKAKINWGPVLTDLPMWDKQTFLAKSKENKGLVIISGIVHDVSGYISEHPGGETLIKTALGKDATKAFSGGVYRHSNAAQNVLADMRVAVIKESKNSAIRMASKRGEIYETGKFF
Description: as §1, §2, §3, §4, §5, §6, §7

[4] = humanized yeast expressing human SCD1
[5] = humanized yeast expressing human SCD5
[6] = humanized yeast expressing SCD1
[7] = humanized yeast expressing SCD5

In the case of Cc1nn(C)c2cc(-c3nsc(C4CCN(C(=O)CNC(=O)c5cccc(C#N)c5)CC4)n3)ccc12 [Compound 322], the IC50 [1, 4] is reported as greater than 45 µM, the “SCD1 % Max Inhibition” value [1, 4] is reported as 73.6% and the IC50 [2, 5] is reported as greater than 45 µM. The “SCD5 % Max Inhibition” value [2, 5] was 29.8% and the “OLE1 % Max Inhibition” value [3] was 9.0%.

With O=C(O)Cn1nnc(-c2cc(N3CCC(Oc4cc(F)ccc4Br)CC3)no2)n1 [MK-8245, reference compound] the “half-maximal inhibitory concentration (IC50), SCD5 humanized strain” value [2] was “low nanomolar” and the “Sensitivity of yeast expressing OLE1 to known SCD1/SCD5 inhibitors” value (“Sensitivity … to known SCD1/SCD5 inhibitors” below) [3] was “resistant”.

In the case of Cc1nn(C)c2cc(-c3noc(C4CCN(C(=O)OC(C)(C)C)CC4)n3)ccc12 [Compound 300], the IC50 [1, 4] is reported as greater than 45 µM, the “SCD1 % Max Inhibition” value [1, 4] is reported as 78.1% and the IC50 [2, 5] is reported as greater than 45 µM. For the same compound, the “SCD5 % Max Inhibition” value [2, 5] was 36.0% and the “OLE1 % Max Inhibition” value [3] was 79.7%.

With COc1ccc(-c2noc(C3CCN(C(=O)[C@H]4CC(=O)N(c5ccccc5)C4)CC3)n2)cc1OC [Compound 65] the IC50 [1, 6] was greater than 45 µM, the “SCD1 % Max Inhibition” value [1, 6] was 83.43% and the IC50 [2, 7] was greater than 45 µM. For the same compound, the “SCD5 % Max Inhibition” value [2, 7] was 73.43% and the “OLE1 % Max Inhibition” value [3] was 4.02%.

For COc1cccc(-c2noc(C3CCN(C(=O)[C@@H]4CC(=O)N(c5ccc(C)c(C)c5)C4)CC3)n2)c1 (single isomer, unassigned) [Compound 69], the “SCD1 % Max Inhibition” value [1, 6] was 60.59%, the “SCD5 % Max Inhibition” value [2, 7] was 8.06% and the “OLE1 % Max Inhibition” value [3] was 105.31%.

In the case of COc1ccc(-c2noc(C3CCN(C(=O)[C@@H]4CC(=O)N(c5ccccc5)C4)CC3)n2)cc1OC [Compound 66], the IC50 [1, 6] is reported as greater than 45 µM, the “SCD1 % Max Inhibition” value [1, 6] is reported as 94.04% and the IC50 [2, 7] is reported as greater than 45 µM. The “SCD5 % Max Inhibition” value [2, 7] was 19.53% and the “OLE1 % Max Inhibition” value [3] was 99.71%.

In the case of COc1ccc(-c2noc(C3CCN(C(=O)[C@H]4CC(=O)N(c5ccc(C)c(C)c5)C4)CC3)n2)cc1OC (single isomer, unassigned) [Compound 67], the “SCD1 % Max Inhibition” value [1, 6] is reported as 54.45%, the “SCD5 % Max Inhibition” value [2, 7] is reported as 4.32% and the “OLE1 % Max Inhibition” value [3] is reported as 85.79%.

For CNC(=O)c1cccc(NC(=O)N2CCC(Oc3ccccc3Cl)CC2)c1 [Compound A939572, reference compound], the “half-maximal inhibitory concentration (IC50), SCD1 humanized strain” value [1] was “low nanomolar”, the “half-maximal inhibitory concentration (IC50), SCD5 humanized strain” value [2] was “low nanomolar” and the “Sensitivity … to known SCD1/SCD5 inhibitors” value [3] was “resistant”.

In the case of COc1ccc(-c2noc(C3CCN(C(=O)[C@@H]4CC(=O)N(c5ccc(C)c(C)c5)C4)CC3)n2)cc1OC [Compound 68], the IC50 [1, 6] is reported as greater than 45 µM, the “SCD1 % Max Inhibition” value [1, 6] is reported as 22.28% and the IC50 [2, 7] is reported as greater than 45 µM. The “SCD5 % Max Inhibition” value [2, 7] was 3.75% and the “OLE1 % Max Inhibition” value [3] was 9.74%.

In the case of CC(C)n1ncc2ccc(-c3noc(C4CCN(C(=O)c5ncco5)CC4)n3)cc21 [Compound 615], the IC50 ([1]; growth of humanized yeast strain expressing human SCD1) is reported as 0.848 µM and the IC50 ([2]; growth of humanized yeast strain expressing human SCD5) is reported as 1.88 µM.

Compound CC(C)n1ncc2ccc(-c3noc(C4CCNCC4)n3)cc21 [Compound 500] has an IC50 [1, 4] greater than 45 µM and an IC50 [2, 5] greater than 45 µM.

CC(C)(C)OC(=O)N1CCN(c2noc(-c3ccc4cnn(C5COC5)c4c3)n2)CC1 [Compound 750] showed an IC50 ([1]; humanized yeast strain, 40 h) of 3.25 µM and an IC50 ([2]; humanized yeast strain, 40 h) of 0.01 µM.

COC(=O)C1CCCN(c2noc(-c3ccc4cnn(C5COC5)c4c3)n2)CC1 (stereo not drawn) [Compound 857] showed an IC50 ([1]; humanized yeast strain, 40 h) greater than 45 µM and an IC50 ([2]; humanized yeast strain, 40 h) of 26.8 µM.

In the case of Cc1nnc(-c2ccc(N3CCC(Oc4cc(F)ccc4Cl)CC3)nn2)o1 [CAY10566, reference compound], the “half-maximal inhibitory concentration (IC50), SCD1 humanized strain” value [1] is reported as “low nanomolar”, the “half-maximal inhibitory concentration (IC50), SCD5 humanized strain” value [2] is reported as “low nanomolar” and the “Sensitivity … to known SCD1/SCD5 inhibitors” value [3] is reported as “resistant”.

Cc1nnc(-c2ccc(N3CCC(Oc4ccccc4C(F)(F)F)CC3)nn2)s1 [MF-438, reference compound] was tested, and the “half-maximal inhibitory concentration (IC50), SCD1 humanized strain” value [1] was “low nanomolar”, the “half-maximal inhibitory concentration (IC50), SCD5 humanized strain” value [2] was “low nanomolar” and the “Sensitivity … to known SCD1/SCD5 inhibitors” value [3] was “resistant”.

Work on COCC(C)(C)n1ncc2ccc(-c3noc(C4CCN(C(=O)OC(C)(C)C)CC4)n3)cc21 [Compound 788] yielded an IC50 ([1]; humanized yeast strain, 40 h) greater than 45 µM and an IC50 ([2]; humanized yeast strain, 40 h) of 6.22 µM.

For CCN1C(=O)CN(C)c2ccc(-c3noc(C4CCN(C(=O)CNC(=O)c5ccccc5)CC4)n3)cc21 [Compound 298], the IC50 [1, 4] was greater than 45 µM, the “SCD1 % Max Inhibition” value [1, 4] was 92.3% and the IC50 [2, 5] was greater than 45 µM. For the same compound, the “SCD5 % Max Inhibition” value [2, 5] was 21.3% and the “OLE1 % Max Inhibition” value [3] was 6.6%.
